These results are taken from patent EP2497775A1, “Ferrocene-based compounds and their use as ROS regulating prodrugs” (Ruprecht-Karls-Universität Heidelberg, priority 2011, dated 2012).

Read-outs that look alike come from different tables or passages of the source.

For orientation: IC50 means the concentration that inhibits the measured activity by half.

The subject of series [1] is Human promyelocytic leukemia cells (HL-60). The experiment in a line: Viability of HL-60 cells (propidium iodide, flow cytometry). As to conditions: read-out: Toxicity of the complexes: IC50. The class given is cell-based. The method, then: Determination of viability of HL-60 cells (Table 4)
HL-60 cells grown in RPMI 1640 medium supplemented with 10 % FCS, 1 % L-glutamine and 1% penicillin were centrifuged, the medium was replaced with RPMI 1640 medium (5 % FCS, 1 % L-glutamine, 1% penicillin) to obtain suspensions containing 10^6 cells per mL. Stock solutions of prodrugs of different concentrations (5 µL, solvent: DMF containing 2 % water and 1 % sodium ascorbate) were added to the cellular suspensions (500 µL) and incubated for specific periods of time. Four experiments were conducted for each concentration of the prodrug. At the end of the incubation period propidium iodide (PI, 1 µL, 1.5 mM in water) was added to label leaky cells and in 5 min the suspension of the cells was analyzed by using flow cytometry.
(In flow cytometry, cells or beads pass a laser one at a time.)

The nature of series [2]: Release of iron ions from the prodrugs in the presence of hydrogen peroxide (2,2'-bipyridine absorbance). It is filed as physicochemical. The conditions noted are these: H2O2 (1 mM), 22°C, 100 min, MOPS buffer pH 7.5; relative to FeSO4 (100 µM). The method, then: Monitoring release of iron ions from the prodrugs A-E, Comparative Example and control compounds in the presence of hydrogen peroxide (Table 1):
Solution of a ferrocene complex (10 µL, 10 mM in DMF containing 2% water and 1% sodium ascorbate) was diluted with MOPS buffer (990 µL, 100 mM, pH 7.5). Such probes were incubated with H2O2 (1 mM) at 22°C for 100 min. Then the reaction was quenched by adding sodium dithionite (20 µL, 1 M in water) that converts Fe^3+ into Fe^2+. Finally, 2,2'-bipyridine solution (3 µL, 100 mM in DMF) was added to form dark red [Fe(2,2'-bipyridine)3]^2+ complex (λmax= 519 nm). FeSO4 sulfate (100 µM) was used as a positive control to determine the absorbance intensity when the ferrocene complexes were completely converted by H2O2 to free Fe^2+. […] The data are provided in Table 2 and were determined by using the following formulae: iron release efficacy = (A519nm(prodrug) - A519nm(buffer)) / (A519nm(FeSO4) - A519nm(buffer)), where A519nm(prodrug) is absorbance at 519 nm of a prodrug treated with H2O2 and 2,2'-bipyridine as described above, A519nm(FeSO4) is absorbance at 519 nm of FeSO4 treated in a similar way as a prodrug and A519nm(buffer) is absorbance at 519 nm of the buffer only treated in a similar way as a prodrug.

In the next series the test system is HL-60 cells. The experiment in a line: Generation of ROS in cells (DCFH-DA, flow cytometry). The class given is cell-based, Human. As to conditions: 50 µM, 4 h. The method, then: Generation of ROS in HL-60 cells in the presence the prodrugs, comparative example C.-E. and controls (Table 3)
The probe of HL-60 cells was taken from the cultivation medium (RPMI 1640 supplemented with 10 % FCS, 1 % L-glutamine and 1% penicillin). The medium was replaced for PBS-buffer to obtain the cell suspension with 10^6 cells per mL. DCFH-DA solution (1 µL, 10 mM in DMSO) was added to the suspension (1 mL) and incubated in the dark chamber filled with CO2 (5 %) at 37 °C for 5 min. Then, the cells were washed with PBS and RPMI 1640 (5 % FCS, 1 % L-glutamine, 1% penicillin) medium and an iron complex (10 µL of stock solutions, solvent: DMF containing 2 % water and 1 % sodium ascorbate, final concentration of the complex - 50 µM) was added. After 4 h of the incubation the fluorescence of live cells (λex = 488 nm, λem = 530 nm) in the suspensions was determined by using the flow cytometer. Efficacy of ROS generation was determined using the following formulae: efficacy = (F(prodrug) - F0) / (F(FeSO4) - F0), where F(prodrug) is mean fluorescence intensity of cells incubated with a prodrug and treated as described above, F(FeSO4) is mean fluorescence intensity of cells incubated with FeSO4; F0 is mean fluorescence intensity of cells, which were not treated with any iron complex.

The nature of series [3]: TLC retention factor as measure of hydrophobicity. It is filed as physicochemical. The conditions noted are these: support - SiO2, eluent - hexane / ethyl acetate (3/1, v/v); proportional to hydrophobicity.
The nature of series [4]: Generation of ROS in vitro (DCFH fluorescence, cell-free). It is filed as biochemical. As to conditions: iron complex 100 µM, H2O2 (10 mM), glutathione (5 mM), pH 7.5, relative to FeSO4. The method, then:
Monitoring generation of ROS in the presence of the prodrugs A-E, Comparative Example and control compounds (Table 1):
2',7'-Dichlorfluorescin diacetate (DCFH-DA, 4.9 mg) was dissolved in DMF (100 µL) and mixed with aqueous NaOH (0.1 M, 900 µL). The resulting mixture was incubated for 30 min at 22°C in the dark to obtain the stock solution of 2',7'-dichlorfluorescin (DCFH, 10 mM). Next, the solution (1 mL) containing DCFH (10 µM), MOPS buffer (100 mM, pH 7.5), EDTA (10 mM), glutathione (5 mM) and H2O2 (10 mM) was prepared. Monitoring of fluorescence (λex= 501 nm, λem= 531 nm) of this solution was started. After 3 min, an iron complex (100 µM: ferrocene prodrugs A-E, Comparative Example, negative or positive controls 1 a, P) was added and the fluorescence monitoring was continued. Efficacy of ROS generation was then determined 17 and 37 min after the addition of the iron complex by using the following formulae: efficacy = (F(prodrug) - F0) / (F(FeSO4) - F0), where F(prodrug) is fluorescence of a mixture containing prodrug and treated as described above, F(FeSO4) is fluorescence of a mixture containing FeSO4; F0 is fluorescence of a mixture containing no iron complex.

A further series has as its system HL60-cells. The experiment in a line: Cell permeability of the prodrugs (boron/curcumin assay). The conditions noted are these: 100 µM, 1 h, boron relative to comparative example C.-E. It is filed as cell-based, Human. The method, then: Assay for determination of cell Permeability of the prodrugs (Table 2) (according to the protocol described in J.Plant Nutr. Soil Sci. 1999,162,15-18) HL60-cells grown in RPMI 1640 medium supplemented with 10 % FCS, 1 % glutamine and 1% penicillin / streptomycin were centrifuged and the medium was replaced with RPMI 1640 medium (5 % FCS, 1 % L-glutamine, 1% penicillin) to obtain suspensions containing 10^6 cells per mL. Solutions of prodrugs (5 µL, solvent: DMF containing 2 % water and 1 % sodium ascorbate) were added to the suspensions (500 µL) and incubated for 1 h. The final concentration of the prodrugs in the suspensions was 100 µM. Then the cells were washed 3 times with PBS buffer (3 x 500 µL), treated with concentrated H2O2 solution (200 µL, 1 M) for 30 min and all volatiles were removed by lyophilization. Dry, lysed cells were washed with water (200 µL) and aqueous solution obtained was acidified with HCl (400 µL, 0.1 M). Then this solution was extracted with ethyl-1,3-hexandiol (100 µL, 10 % in CHCl3, v/v) and a portion of the organic phase obtained (40 µL) was mixed with H2SO4 / CH3CO2H (400 µL, 1/1, v/v). Curcumin solution in methylisobutylketone (500 µL, 2 mg in 1 mL of the solvent) was added and allowed to react for 24 h. The reaction was quenched by addition of water (1 mL). […] The value A(550 nm)-A(780 nm) was proportional to concentration of boron in the mixture. Amount of boron released from comparative example C.-E. was taken as a reference. All other values were determined relative to this reference. These values are compared in Table 2 with TLC retention factors, which are proportional to hydrophobicity of the prodrugs.

In another series the test system is C480 (colon). As to conditions: cited from earlier work.
Another series concerns MIRW5 (melanoma). As to conditions: cited from earlier work.
In another series the test system is C8161 (melanoma). As to conditions: cited from earlier work.
Another series relates to BE (ovary). As to conditions: cited from earlier work.
In a further series the test system is CIN8/27B (myeloma). The conditions noted are these: cited from earlier work.
Another series has as its system 8226-Dox 40 (myeloma). As to conditions: cited from earlier work.
For a further series, the system named is MCF-7 (breast). As to conditions: cited from earlier work.
The test system of the next series is 8226 (myeloma). As to conditions: cited from earlier work.
Another series deals with A375 (melanoma). As to conditions: cited from earlier work.
For another series, the system named is HEY (ovary). The conditions noted are these: cited from earlier work.
A short description of series [5]: Formation of ferrocenium ions in the presence of H2O2 (absorbance at 300 nm). It is filed as physicochemical. As to conditions: 100 µM complex in dimethylformamide, 9.8 mM H2O2 (Figure 1). The method, then:
Figure 1: Iron complexes (100 µM) were dissolved in dimethylformamide and concentrated H2O2 solution (30 % in water, 1 µL) was added: final H2O2 concentration was 9.8 mM. Light absorbance at 300 nm was monitored as a function of time.
Monitoring formation of ferrocenium ions from the prodrugs A and B, as well as comparative example C.-E
Formation of ferrocenium ions from ferrocenes correlates with the increased light absorption in the region between 250 and 350 nm. In this spectral region […] have intense charge transfer transitions, whereas ferrocenes have only weak transitions (Y.S. Sohn, D.N. Hendrickson, H.B. Grey, J. Am. Chem. Soc., 1971, 93(15), 3603 - 3612).

[6] abbreviates: 72 h incubation (value in brackets).

For “4-((N-Ethyl-N-Ferrocenylaminocarbonyl)oxymethyl)-2-phenylboronic acid pinacol ester [Prodrug A]”, the results for the IC50 in series [1] (listed as prodrug A) and in [1] were 12 to 26 µM and 26 ± 3 µM, respectively. For the same compound, the “Efficacy of iron release in vitro” value in series [2] stood at 0.72. In the series on HL-60 cells, the “Efficacy of ROS release in cells” value turned out to be 0.06 ± 0.03. In addition, in [3], the “TLC-retention factor (Rf)” value worked out at 0.47. For the same compound, in [4] (17 min incubation), the “Efficacy of ROS generation in vitro” value is reported as 0.50.
For the compound “4-((N-(4-ethylbenzyl)-N-Ferrocenylaminocarbonyl)oxymethyl)-2-phenylboronic acid pinacol ester [Prodrug D]”, the “Relative efficiency of cell loading” value in the series with HL60-cells stood at 2.3. Besides, the IC50 in series [1] (listed as prodrug D) is 12 to 26 µM; in series [1], 14 µM. Also, the “Efficacy of iron release in vitro” value in series [2] stood at 0. Moreover, the “Efficacy of ROS release in cells” value in the series with HL-60 cells was 0.03 ± 0.02. For the same compound, the “TLC-retention factor (Rf)” value in series [3] was 0.51. In addition, the “Efficacy of ROS generation in vitro” value in [4] (17 min incubation) is reported as 0.09; in [4] (37 min incubation), 0.24.
Take “4-((N-(4-methylbenzyl)-N-Ferrocenylaminocarbonyl)oxymethyl)-2-phenylboronic acid pinacol ester [Prodrug C]”: in the series on HL60-cells, the “Relative efficiency of cell loading” value is 1.5. Besides, the IC50 in [1] (listed as prodrug C) is 12 to 26 µM; in series [1], 12 ± 1 µM. Moreover, the “Efficacy of iron release in vitro” value in [2] is given as 0. The “TLC-retention factor (Rf)” value in series [3] turned out to be 0.50. Besides, the “Efficacy of ROS generation in vitro” value is on record as 0.10 in [4] (17 min incubation) and 0.42 in series [4] (37 min incubation).
Take `N=C1NC(=O)N2CC12` (centres unmarked) [Imexon (Amplimexon), Imexon]: the concentration for half-maximal inhibition (IC50) with C480 (colon) (24 h incubation) is 270 µM; in the series on C480 (colon) (setting [6]), 135 µM; with MIRW5 (melanoma) (24 h incubation) it was 315 µM; with MIRW5 (melanoma) (setting [6]), 63 µM; in the series with C8161 (melanoma) (24 h incubation), 72 µM; with C8161 (melanoma) (setting [6]) it was 135 µM. In addition, the IC50 with BE (ovary) (24 h incubation) was 450 µM; in the series with BE (ovary) (setting [6]), 270 µM; in the series on CIN8/27B (myeloma) (24 h incubation) it was 270 µM; with CIN8/27B (myeloma) (setting [6]), 90 µM; in the series on 8226-Dox 40 (myeloma) (24 h incubation) it was 40 µM; with 8226-Dox 40 (myeloma) (setting [6]) it was 36 µM. In addition, the IC50 was 270 µM in the series on MCF-7 (breast) (24 h incubation); 450 µM in the series on MCF-7 (breast) (setting [6]); 40 µM in the series with 8226 (myeloma) (24 h incubation); 41 µM with 8226 (myeloma) (setting [6]); 54 µM in the series on A375 (melanoma) (24 h incubation); 45 µM in the series with A375 (melanoma) (setting [6]). Further, the half-maximal inhibitory concentration (IC50) in the series on HEY (ovary) (24 h incubation) was 180 µM; in the series with HEY (ovary) (setting [6]), 270 µM.
As to “4-((N-Ferrocenylaminocarbonyl)oxymethyl)-2-methylphenylboronic acid pinacol ester [Prodrug E]”, the IC50 in series [1] was determined as 39 ± 4 µM. In [2], the “Efficacy of iron release in vitro” value was 0.74. Further, the “Efficacy of ROS release in cells” value with HL-60 cells is on record as 0.04 ± 0.02. The “formation of ferrocenium ions” value in series [5] is reported as “rather decomposed with formation of iron ions”. The “TLC-retention factor (Rf)” value in [3] is listed as 0.45. Further, the “Efficacy of ROS generation in vitro” value in [4] (17 min incubation) came to 0.52.
